# Measurements reported in patent US7122621B2, “Anti-cellular proliferative disorder polypeptide” (Academia Sinica, priority 2003, dated 2006).
# Like-named read-outs stand apart in the source and are kept apart here. No end group written: not given here.
# Assays:
# [1] = test system: HL-60; assay: cells
# Description: (§1) To evaluate the cell lysis activity of CHM1, a cytotoxcity assay was conducted according to the method described in Chen H. et al., Biochim. Biophys. Acta 1336:171–179, 1997 and Wang W. et al., J. Biol. Chem. 273:27438–27448, 1998.
# (§2) Anchorage-independent normal cells such as red blood cells and lymphoblast RPMI 7666 cells, and leukemia cell lines such as CCRF-CEM, HL-60, and Jurkat, K-562 cells were respectively maintained in RMPI-1640 culture media containing 10% FBS, 100 unit/ml penicillin G, and 100 μg/ml streptomycin. Cells of each type were seeded at 1×10^5/ml into a 25 cm^2 flask (Falcon) and cultured at 37° C. in the presence of 5% CO2 for two days. The cells were then centrifuged at 1000 rpm for 5 min. The resultant pellet was washed twice with the just-mentioned culture medium, resuspended in an RMPI-1640 medium containing 0.5% FBS, and cultured overnight.
# (§3) Each of the above-prepared cell suspensions was adjusted so that it contained 1×10^5 cells/ml before being transferred into 9 wells of a 96-well plate (90 μl/well). The suspension in each well was mixed with 10 ul of a culture medium containing CHM1 freshly prepared from a […] stock solution so that the final concentrations in the 9 wells were 0, 1, 5, 10, 15, 20, 30, 50, and 100 μM, respectively. Triplicates for each well were set up. After incubating for 24 hours, a microtetrazolium (MTT)-based colorimetric assay was conducted. It is known that MTT can be metabolized by mitochondrial dehydrogenases in metabolically active cells to form a formazan salt, which has a strong absorption at 570 nm. To conduct the assay, 20 μl of a solution containing 5 mg/ml MTT (Boehringer Mannheim) was added to each of the wells mentioned above and a well containing 100 μl of PBS. The latter was used as a blank control. After incubating for 4 hours, 100 μl of a solution containing 10% SDS and […] HCl was added to each well. The plate was then incubated at 37° C. overnight. The absorbance at 570 nm of the mixture in each well was measured using a Bio-Rad model 450 microtiter plate reader. An average cell survival rate of each triplicate was determined based on the corresponding ΔA570nm relative to that of the well containing 0 μM CHM1. The survival rates thus obtained were plotted against corresponding CHM1 concentrations to form a cell survival curve and derive the IC50. Using the same procedure, also determined were the IC50s of other lytic polypeptides, such as cecropin B (CB), cecropin B1 (CB1), Melittin, and Magainin II, and cancer chemotherapeutic agents, such as doxorubicin (DOX), vincristine (VCR), methotrexate (MTX), 5-fluorouracil (5-Fu), cytarabine (Ara-C), 6-mercaptopurine (6-MP). At least three independent experiments were conducted for each of the polypeptides and agents.
# [2] = test system: lymphoblast RPMI 7666 cells; assay: cells
# Description: as §1, §2, §3
# [3] = test system: CCRF-SB; assay: MTT-based cytotoxicity assay, CCRF-SB cancer cells; type: cell-based; conditions: Homo sapiens, Table 2, 24 hours incubation
# Description: as §1, §3
# [4] = test system: CCRF-CEM; assay: cells
# Description: as §1, §2, §3
# [5] = test system: Jurkat; assay: cells
# Description: as §1, §2, §3
# [6] = test system: K-562; assay: cells
# Description: as §1, §2, §3
# [7] = test system: stomach carcinoma (AGS) cells; assay: cells
# Description: as §1
# (§4) Anchorage-dependent cells such as tissue cells (3T3 cells) or stomach carcinoma (AGS) cells were seeded at 1×10^4 cells/ml into a 25-cm^2 flask containing D-MEM medium supplemented with 10% FBS, 100 unit/ml penicillin G, and 100 μg/ml streptomycin. Cells were grown to about 80% confluence before being trypsinized. The trypsinized cells were resuspended in a D-MEM medium containing 0.5% FBS.
# as §3
# [8] = test system: tissue cells (3T3 cells); assay: cells
# Description: as §1, §4, §3
# [9] = test system: red blood cells (RBCs); assay: Hemolysis of red blood cells; type: cell-based; conditions: 200 μM
# Description: as §2
# Effects of CHM1, melittin, CB, CB1 and doxorubicin on red blood cells (RBCs) were also examined. […] In fact, about 15% of RBCs lysed after being treated with CHM1 (200 μM). In contrast, about 100%, 57%, 55%, and 20% of RBCs lysed after being treated by melittin, CB, CB1, and doxorubicin, respectively, at the same concentration.
# [10] = Homo sapiens, HL-60, 24 h, read-out: IC50, Cancer Cells HL-60
# [11] = 24 h, read-out: IC50, Lymphoblasts RPMI 7666
# [12] = read-out: IC50, Leukemia cells CCRF-CEM, 24 hours incubation, MTT
# [13] = read-out: IC50, Leukemia cells HL-60, Table 1, 24 hours incubation, MTT
# [14] = read-out: IC50, Leukemia cells Jurkat, 24 hours incubation, MTT
# [15] = read-out: IC50, Leukemia cells K-562, 24 hours incubation, MTT
# [16] = read-out: IC50, Stomach Carcinoma AGS, 24 hours incubation, MTT
# [17] = read-out: IC50, Normal cells Tissue cells (3T3), 24 hours incubation, MTT
# [18] = read-out: IC50, Normal cells Lymphoblast (RPMI7666), Table 1, 24 hours incubation, MTT
molecule,measurement,setting,value
"O=c1[nH]cc(F)c(=O)[nH]1 [5-FU, 5-fluorouracil]",IC50,[1]; [10],7.6 ± 10.5 µM
same,IC50,[2]; [11],1.15 ± 0.4 µM
same,IC50,[3],123 ± 30.7 µM
"Sc1ncnc2nc[nH]c12 [6-MP, 6-mercaptopurine]",IC50,[1]; [10],0.43 ± 0.05 µM
same,IC50,[2]; [11],1.24 ± 0.3 µM
same,IC50,[3],0.44 ± 0.01 µM
"Nc1ccn([C@@H]2O[C@H](CO)[C@@H](O)[C@@H]2O)c(=O)n1 [Ara-C, cytarabine]",IC50,[1]; [10],0.08 ± 0.02 µM
same,IC50,[2]; [11],0.3 ± 0.1 µM
same,IC50,[3],0.1 ± 0.01 µM
"COc1cccc2c1C(=O)c1c(O)c3c(c(O)c1C2=O)C[C@@](O)(C(=O)CO)C[C@@H]3O[C@H]1C[C@H](N)[C@H](O)[C@H](C)O1 [Doxorubicin, doxorubicin]",IC50,"[4]; Homo sapiens, CCRF-CEM, 24 h, read-out: IC50, Leukemia cells CCRF-CEM",0.4 ± 0.1 µM
same,IC50,[1]; [10],0.19 ± 0.01 µM
same,IC50,"[1]; Homo sapiens, HL-60, 24 h, read-out: IC50, Leukemia cells HL-60",0.19 ± 0.01 µM
same,IC50,"[5]; Homo sapiens, Jurkat, 24 h, read-out: IC50, Leukemia cells Jurkat",0.4 ± 0.1 µM
same,IC50,"[6]; Homo sapiens, K562, 24 h, read-out: IC50, Leukemia cells K-562",> 10 µM
same,IC50,[2]; [11],1.86 ± 0.1 µM
same,IC50,"[2]; 24 h, read-out: IC50, Normal cells Lymphoblast (RPMI7666)",1.9 ± 0.1 µM
same,IC50,"[7]; Homo sapiens, AGS, 24 h, read-out: IC50, Stomach Carcinoma AGS",4.1 ± 0.4 µM
same,IC50,"[8]; Mus musculus, NIH3T3, 24 h, read-out: IC50, Normal cells Tissue cells (3T3)",2 ± 0.7 µM
same,IC50,[3],0.46 ± 0.07 µM
same,RBCs lysed,[9],~20%
"CN(Cc1cnc2nc(N)nc(N)c2n1)c1ccc(C(=O)N[C@@H](CCC(=O)O)C(=O)O)cc1 [MTX, methotrexate]",IC50,[1]; [10],0.018 ± 0.01 µM
same,IC50,[2]; [11],0.132 ± 0.04 µM
same,IC50,[3],0.017 ± 0.01 µM
CC[C@H](C)[C@H](NC(=O)CN)C(=O)NCC(=O)N[C@@H](C)C(=O)N[C@H](C(=O)N[C@@H](CC(C)C)C(=O)N[C@@H](CCCCN)C(=O)N[C@H](C(=O)N[C@@H](CC(C)C)C(=O)N[C@H](C(=O)N[C@H](C(=O)NCC(=O)N[C@@H](CC(C)C)C(=O)N1CCC[C@H]1C(=O)N[C@@H](C)C(=O)N[C@@H](CC(C)C)C(=O)N[C@H](C(=O)N[C@@H](CO)C(=O)N[C@@H](Cc1c[nH]c2ccccc12)C(=O)N[C@H](C(=O)N[C@@H](CCCCN)C(=O)N[C@@H](CCCNC(=N)N)C(=O)N[C@@H](CCCCN)C(=O)N[C@@H](CCCNC(=N)N)C(=O)N[C@@H](CCC(N)=O)C(=O)N[C@@H](CCC(N)=O)C(N)=O)[C@@H](C)CC)[C@@H](C)CC)[C@@H](C)O)[C@@H](C)O)C(C)C)C(C)C [Melittin],IC50,[4]; [12],0.5 ± 0.02 µM
same,IC50,[1]; [13],0.8 ± 0.02 µM
same,IC50,[5]; [14],2.5 ± 0.1 µM
same,IC50,[6]; [15],3.2 ± 0.3 µM
same,IC50,[7]; [16],0.6 ± 0.02 µM
same,IC50,[8]; [17],6 ± 0.03 µM
same,RBCs lysed,[9],about 100%
"CC[C@]1(O)C[C@H]2CN(CCc3c([nH]c4ccccc34)[C@@](C(=O)OC)(c3cc4c(cc3OC)N(C=O)[C@H]3[C@@](O)(C(=O)OC)[C@H](OC(C)=O)[C@]5(CC)C=CCN6CC[C@]43[C@@H]65)C2)C1 [VCR, vincristine]",IC50,[1]; [10],0.034 ± 0.01 µM
same,IC50,[2]; [11],0.021 µM
same,IC50,[3],0.015 ± 0.01 µM
GIGKFLHSAKKFGKAFVGEIMNS [Magainin II],IC50,[4]; 24 h,32.9 ± 0.9 µM
same,IC50,[1]; 24 h,38.3 ± 3.2 µM
same,IC50,[5]; 24 h,44 ± 2.4 µM
same,IC50,[6]; 24 h,> 50 µM
same,IC50,[7]; 24 h,28.7 ± 5 µM
same,IC50,[8]; 24 h,> 50 µM
KWKVFKKIEKKWKVFKKIEKAGPKWKVFKKIEK [CHM1],IC50,[4]; 24 h,4.4 ± 0.3 µM
same,IC50,[1]; 24 h,6.7 ± 1.1 µM
same,IC50,[5]; 24 h,10.1 ± 1.2 µM
same,IC50,[6]; 24 h,8.5 ± 0.6 µM
same,IC50,[2]; [18],> 100 µM
same,effect on normal lymphoblasts (in words),[2]; summary of Table 1,little effect
same,IC50,[7]; 24 h,5.6 ± 0.5 µM
same,IC50,[8]; 24 h,> 50 µM
same,effect on normal tissue cells (in words),[8]; summary of Table 1,little effect
"KWKVFKKIEKMGRNIRNGIVKAGPAIAVLGEAKAL-NH2 [CB, cecropin B]",IC50,[4]; 24 h,11.7 ± 1.3 µM
same,IC50,[1]; 24 h,18.5 ± 1.7 µM
same,IC50,[5]; 24 h,31.5 ± 3 µM
same,IC50,[6]; 24 h,> 50 µM
same,IC50,[2]; [18],> 200 µM
same,IC50,[7]; 24 h,> 50 µM
same,IC50,[8]; 24 h,> 50 µM
cecropin B1 [CB1],IC50,[4]; [12],4.7 ± 0.2 µM
same,IC50,[1]; [13],8.1 ± 0.9 µM
same,IC50,[5]; [14],4 ± 0.4 µM
same,IC50,[6]; [15],15.6 ± 1.8 µM
same,IC50,[2]; [18],> 200 µM
same,IC50,[7]; [16],7.1 ± 1.3 µM
same,IC50,[8]; [17],> 50 µM
